Reference: patent US12528802B2, “Heterocyclic compound” (Takeda Pharmaceutical Company Limited, priority 2019, dated 2026)

Each compound was assayed against T1, glucosylceramide synthase (Homo sapiens, UniProt Q16739) (assay: Glucosylceramide synthase (GCS) enzyme assay, microsome fraction, C8 glucosylceramide quantified by Rapidfire MS/MS). Conditions: test compound 10 μM; 1.7 μM UDP-glucose, 3 μM C8 ceramide; room temperature 60 min.
T1 construct: made in house; host or cells: Expi293F cells (transient expression, pcDNA3.3-TOPO vector); microsome fraction used as enzyme source
T1 sequence (Q16739 1-394): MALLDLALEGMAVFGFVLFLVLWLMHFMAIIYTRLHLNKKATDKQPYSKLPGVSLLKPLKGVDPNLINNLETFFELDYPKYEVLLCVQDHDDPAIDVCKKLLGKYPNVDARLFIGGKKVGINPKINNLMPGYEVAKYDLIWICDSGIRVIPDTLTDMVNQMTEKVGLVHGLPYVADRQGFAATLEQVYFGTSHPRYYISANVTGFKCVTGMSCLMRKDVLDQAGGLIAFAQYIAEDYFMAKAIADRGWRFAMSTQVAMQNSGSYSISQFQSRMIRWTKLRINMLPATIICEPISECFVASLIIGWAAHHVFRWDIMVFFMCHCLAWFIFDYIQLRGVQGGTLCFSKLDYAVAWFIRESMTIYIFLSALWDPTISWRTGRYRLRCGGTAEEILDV
Assay type: biochemical
Method: Glucosylceramide Synthase (GCS) Assay
In enzyme assay, a microsome fraction obtained by transient expression by Expi293F™ cells (catalog number: A14527, Thermo Fisher Scientific) was used as a glucosylceramide synthase source. Liposomal C8 ceramide and UDP-glucose were used as substrates. […] After the enzymatic reaction, the analysis was performed with Rapidfire MS/MS (API-4000™, SCIEX), and C8 glucosylceramide was quantified to evaluate the inhibitory activity of the test compound against glucosylceramide synthase activity.
PcDNA3.3TOPO vector (catalog number: K830001, Thermo Fisher Scientific) into which the human GCS gene was inserted was introduced into Expi293F™ Cells (catalog number: A14527, Thermo Fisher Scientific) by using ExpiFectamine™ 293 Transfection Kit (catalog number: A14525, Thermo Fisher Scientific). The cultured cells were dissolved in D-PBS (catalog number: 048-29805, Fuji Film Wako Pure Chemical Industries, Ltd.) containing 1 mM PMSF, and the solution was allowed to stand on ice for 30 minutes, and then subjected to cell disruption (homogenized). The disruption solution was centrifuged at 10,000×g for 20 minutes at 4° C., and the obtained supernatant was centrifuged at 142,400×g for 60 minutes at 4° C. The obtained precipitate was resuspended in a D-PBS solution containing 1 mM PMSF, and homogenized again to prepare as a microsome fraction. Protein quantification was performed by the CBB method.
A 1 mM compound solution prepared by dissolving the test compound in DMSO was added to a 384-well plate by 100 nL so that the final concentration of the test compound was 10 μM. Next, a substrate solution consisting of 3.4 μM UDP-glucose and 6 μM C8 ceramide was added by 5 μL, followed by an enzyme solution consisting of a 25 μg/mL microsome fraction by 5 μL. C8 ceramide was prepared from liposomes composed of 15 mol % C8 ceramide and 85 mol % dioleoyl phosphatidylcholine (1,2-dioleoyl-sn-glycero-3-phosphocholine: DOPC). The enzymatic reaction was carried out in a solution consisting of 20 mM tris-hydrochloric acid buffer (pH 7.5), 0.01% Tween 20, 0.01% bovine serum albumin and 1 mM dithiothreitol at room temperature for 60 min. Then, a solution consisting of 75% isopropanol and 1% formic acid containing 0.25 μM N-Octadecanoyl-D35-psichosine (catalog number: 1914, Matreya) as an internal standard substance was added by 60 μL to stop the enzymatic reaction. 5 μL of the centrifugal supernatant of the obtained reaction product was analyzed by Rapidfire MS/MS (Agilent Technologies) using API-4000™ (SCIEX), and the C8 glucosylceramide was quantified to evaluate the inhibitory activity of the test compound against the glucosylceramide synthase activity. The inhibitory activity of the test compound was evaluated when the C8 glucosylceramide level in the enzyme-free solution was considered as 100% inhibitory and the enzyme activity of the DMSO group in the absence of the compound was considered as 0% inhibitory.

Row | SMILES | GCS enzyme inhibitory rate at 10 μM (%) (% of control)
1 | O=C1c2ccnc(-c3ccc(F)cc3OCC(F)(F)F)c2CN1c1ccc(C2(O)CCOC2)cc1 (single isomer, unassigned) [Example 263, (R or S)-4-[4-fluoro-2-(2,2,2-trifluoroethoxy)phenyl]-2-[4-(3-hydroxyoxolan-3-yl)phenyl]-2,3-dihydro-1H-pyrrolo[3,4-c]pyridin-1-one] | 98
2 | O=C1c2ccnc(-c3ccc(F)cc3OCC(F)(F)F)c2CN1c1ccc(C2(O)CCOC2)cc1 (single isomer, unassigned) [Example 264, (R or S)-4-[4-fluoro-2-(2,2,2-trifluoroethoxy)phenyl]-2-[4-(3-hydroxyoxolan-3-yl)phenyl]-2,3-dihydro-1H-pyrrolo[3,4-c]pyridin-1-one] | 98
3 | O=C1c2ccnc(-c3ccccc3OCC(F)(F)F)c2CN1c1ccc(C(O)C(F)(F)F)nc1 (single isomer, unassigned) [Example 277, (R or S)-4-[2-(2,2,2-trifluoroethoxy)phenyl]-2-[6-(2,2,2-trifluoro-1-hydroxyethyl)pyridin-3-yl]-2,3-dihydro-1H-pyrrolo[3,4-c]pyridin-1-one] | 98

Same assay, conditions: test compound 10 μM; 1.7 μM UDP-glucose, 3 μM C8 ceramide; room temperature 60 min; read-out: GCS enzyme inhibitory rate at 10 μM (%) (% of control)

Row | SMILES | inhibition at 10 µM [%]
4 | O=C1c2ccnc(-c3ccc(F)cc3OCC(F)(F)F)c2CN1c1ccc(C(O)C(F)(F)F)c(F)c1 (racemic) [Example 293, rac-4-[4-fluoro-2-(2,2,2-trifluoroethoxy)phenyl]-2-[3-fluoro-4-(2,2,2-trifluoro-1-hydroxyethyl)phenyl]-2,3-dihydro-1H-pyrrolo [3,4-c]pyridin-1-one] | 88
5 | CC(O)(c1ccc(N2Cc3c(ccnc3-c3ccccc3OCC(F)(F)F)C2=O)cc1)C(F)(F)F (racemic) [Example 295, rac-4-[2-(2,2,2-trifluoroethoxy)phenyl]-2-[4-(1,1,1-trifluoro-2-hydroxypropan-2-yl)phenyl]-2,3-dihydro-1H-pyrrolo[3,4-c]pyridin-1-one] | 100
6 | CC(O)(c1ccc(N2Cc3c(ccnc3-c3ccc(F)cc3OCC(F)(F)F)C2=O)cc1)C(F)F (racemic) [Example 296, rac-2-[4-(1,1-difluoro-2-hydroxypropan-2-yl)phenyl]-4-[4-fluoro-2-(2,2,2-trifluoroethoxy)phenyl]-2,3-dihydro-1H-pyrrolo[3,4-c]pyridin-1-one] | 100
7 | CC(O)(c1ccc(N2Cc3c(ccnc3-c3ccccc3OCC(F)(F)F)C2=O)cc1)C(F)F (racemic) [Example 308, rac-2-[4-(1,1-difluoro-2-hydroxypropan-2-yl)phenyl]-4-[2-(2,2,2-trifluoroethoxy)phenyl]-2,3-dihydro-1H-pyrrolo[3,4-c]pyridin-1-one] | 100
8 | CC(O)(c1ccc(N2Cc3c(ccnc3-c3ccc(F)cc3OCC(F)(F)F)C2=O)cc1)C(F)(F)F (racemic) [Example 312, rac-4-[4-fluoro-2-(2,2,2-trifluoroethoxy)phenyl]-2-[4-(1,1,1-trifluoro-2-hydroxypropan-2-yl)phenyl]-2,3-dihydro-1H-pyrrolo [3,4-c]pyridin-1-one] | 99
9 | O=C1c2ccnc(-c3ccccc3OCC(F)(F)F)c2CN1c1ccc(C(O)C2CC2)nc1 (racemic) [Example 317, rac-2-{6-[cyclopropyl(hydroxy)methyl]pyridin-3-yl}-4-[2-(2,2,2-trifluoroethoxy)phenyl]-2,3-dihydro-1H-pyrrolo[3,4-c]pyridin-1-one] | 99
10 | O=C1c2ccnc(-c3ccccc3OCC(F)(F)F)c2CN1c1ccc(C(O)C2CC2)cc1 (racemic) [Example 329, rac-2-{4-[cyclopropyl(hydroxy)methyl]phenyl}-4-[2-(2,2,2-trifluoroethoxy)phenyl]-2,3-dihydro-1H-pyrrolo[3,4-c]pyridin-1-one] | 100
11 | COC(=O)c1ccc(N2CC3=C(OC(C)CN=C3c3ccccc3OCC(F)(F)F)C2=O)cc1 (racemic) [Example 332, rac-methyl 4-{2-methyl-8-oxo-5-[2-(2,2,2-trifluoroethoxy)phenyl]-2,3,6,8-tetrahydro-7H-pyrrolo [3,4-f][1,4]oxazepin-7-yl}benzoate] | 96
12 | CC(O)c1cc2c(c(-c3ccccc3OCC(F)(F)F)n1)CN(c1ccc(OCC(F)(F)F)cc1)C2=O (racemic) [Example 341, rac-6-(1-hydroxyethyl)-4-[2-(2,2,2-trifluoroethoxy)phenyl]-2-[4-(2,2,2-trifluoroethoxy)phenyl]-2,3-dihydro-1H-pyrrolo[3,4-c]pyridin-1-one] | 100
13 | CC(O)c1cc2c(c(-c3ccccc3OCC(F)F)n1)CN(c1ccc(OC(F)F)cc1)C2=O (racemic) [Example 358, rac-4-[2-(2,2-difluoroethoxy)phenyl]-2-[4-(difluoromethoxy)phenyl]-6-(1-hydroxyethyl)-2,3-dihydro-1H-pyrrolo[3,4-c]pyridin-1-one] | 100
14 | Cc1cc2c(c(-c3ccccc3OCC(F)(F)F)n1)CN(c1ccc(OCC3(OC4CCCCO4)CC3)cc1)C2=O (racemic) [Example 374, rac-6-methyl-2-[4-({1-[(oxan-2-yl)oxy]cyclopropyl}methoxy)phenyl]-4-[2-(2,2,2-trifluoroethoxy)phenyl]-2,3-dihydro-1H-pyrrolo[3,4-c]pyridin-1-one] | 100
15 | O=C1c2cc(C3CCCOC3)nc(-c3ccc(F)cc3OCC(F)(F)F)c2CN1c1ccc(F)cc1 (racemic) [Example 386, rac-2-(4-fluorophenyl)-4-[4-fluoro-2-(2,2,2-trifluoroethoxy)phenyl]-6-(oxan-3-yl)-2,3-dihydro-1H-pyrrolo[3,4-c]pyridin-1-one] | 99
16 | CC(C)(O)c1ccc(N2Cc3c(cc(C4CCCOC4)nc3-c3ccccc3OCC(F)(F)F)C2=O)cc1 (racemic) [Example 387, rac-2-[4-(2-hydroxypropan-2-yl)phenyl]-6-(oxan-3-yl)-4-[2-(2,2,2-trifluoroethoxy)phenyl]-2,3-dihydro-1H-pyrrolo[3,4-c]pyridin-1-one] | 101
17 | CC(C)(O)c1ccc(N2Cc3c(cc(C4CCOC4)nc3-c3ccccc3OCC(F)F)C2=O)cc1 (racemic) [Example 390, rac-4-[2-(2,2-difluoroethoxy)phenyl]-2-[4-(2-hydroxypropan-2-yl)phenyl]-6-(oxolan-3-yl)-2,3-dihydro-1H-pyrrolo[3,4-c]pyridin-1-one] | 77
18 | O=C1c2ccnc(-c3ccc(F)cc3OCC(F)(F)F)c2CN1c1ccc(C2(O)CCOC2)cc1 (single isomer, unassigned) [Example 243, (R or S)-4-[4-fluoro-2-(2,2,2-trifluoroethoxy)phenyl]-2-[4-(3-hydroxyoxolan-3-yl)phenyl]-2,3-dihydro-1H-pyrrolo[3,4-c]pyridin-1-one] | 97
19 | O=C1c2ccnc(-c3ccccc3OCC(F)(F)F)c2CN1c1ccc(C(O)C(F)(F)F)nc1 (single isomer, unassigned) [Example 276, (R or S)-4-[2-(2,2,2-trifluoroethoxy)phenyl]-2-[6-(2,2,2-trifluoro-1-hydroxyethyl)pyridin-3-yl]-2,3-dihydro-1H-pyrrolo[3,4-c]pyridin-1-one] | 98
20 | O=C1c2ccnc(-c3ccc(F)cc3OCC(F)(F)F)c2CN1c1ccc(C(O)C(F)F)cc1 (single isomer, unassigned) [Example 278, (R or S)-2-[4-(2,2-difluoro-1-hydroxyethyl)phenyl]-4-[4-fluoro-2-(2,2,2-trifluoroethoxy)phenyl]-2,3-dihydro-1H-pyrrolo[3,4-c]pyridin-1-one] | 99
